Data: patent EP4692094A1 (Beijing Konruns Pharmaceutical Co., Ltd., priority 2023, dated 2024)
pIC50: −log10 of the molar value.

Legend:
KAT8 = biological target: T1, KAT8 (Homo sapiens, UniProt Q9H7Z6); test: Enzymatic activity assay for KAT8 acetyltransferase (TR-FRET); format: biochemical; conditions: KAT8 10 nM, AcCOA 2 µM
T1 construct: purchased active motife (Active Motif) 81225
T1 sequence (Q9H7Z6 1-458): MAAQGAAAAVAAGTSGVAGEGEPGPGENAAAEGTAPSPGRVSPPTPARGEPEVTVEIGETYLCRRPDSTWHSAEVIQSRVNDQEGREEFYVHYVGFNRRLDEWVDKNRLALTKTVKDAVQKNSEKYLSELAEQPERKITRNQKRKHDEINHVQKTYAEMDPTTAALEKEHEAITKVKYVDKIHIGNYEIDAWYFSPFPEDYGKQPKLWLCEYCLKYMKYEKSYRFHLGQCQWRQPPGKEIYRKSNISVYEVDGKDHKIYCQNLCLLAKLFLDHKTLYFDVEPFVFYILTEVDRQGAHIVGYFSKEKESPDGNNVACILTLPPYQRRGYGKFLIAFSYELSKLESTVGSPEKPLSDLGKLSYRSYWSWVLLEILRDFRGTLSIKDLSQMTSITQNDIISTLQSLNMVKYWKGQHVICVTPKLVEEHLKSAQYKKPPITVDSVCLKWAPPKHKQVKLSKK
Protocol: The acetylation effects of KAT6B on histone substrate H3, as well as KAT5, KAT7, and KAT8 on histone substrate H4, were determined using the TR-FRET (time-resolved fluorescence resonance energy transfer) method. The determination was performed according to experimental procedures similar to those in "Pharmacological Experiment I": 1.2 Preparation of compounds: The compounds prepared in the examples were each dissolved in dimethylsulfoxide to give solutions at a concentration of 10 mmol/L. • 1) The compounds in the examples were each diluted from 10 mmol/L stock solution to 0.2 mmol/L, i.e., 1 µL of the compound was added to 49 µL of DMSO, and 3-fold dilution was performed to give 10 concentrations. • 2) 50 nL of the test compounds were transferred to 384 reaction plates using Echo, two replicates for each compound, and the plates were centrifuged at a rotation speed of 1000 rpm for 1 min, the final concentration of dimethylsulfoxide (DMSO) being 0.5%.
For KAT8: • 3) 2.5 µL of the KAT8 enzyme solution at a final concentration of 10 nM was added to the 384 reaction plates in step 2), and the plates were centrifuged at 1000 rpm for 1 min and incubated at 25 °C for 10 min. • 4) 2.5 µL of […] at a final concentration of 300 nM and an AcCOA (acetyl-CoA) reaction solution at a final concentration of 2 µM were added to the 384 reaction plates in step 3), and the plates were centrifuged at a rotation speed of 1000 rpm for 1 min and incubated at 25 °C for 90 min. • 5) 5 µL of Eu-Ab& Ulight-SA detection solution was separately added to the 384 reaction plates in step 4) of the 4 groups described above, and the plates were centrifuged at 1000 rpm for 1 min and incubated at 25 °C for 60 min. • 6) The HTRF […] signals were read using a BMG high-throughput drug-screening multi-mode microplate reader.
The acetylation levels of the histones in the groups were analyzed by the GraphPad Prism 8 software. […]

[1] = Assay for plasma protein binding rate (equilibrium dialysis), mouse plasma; format: in vitro ADME; conditions: dialysis 6 h at 37 °C, read-out: Mouse (Fu%)
Protocol: (§1) 1.1 Preparation of compounds: The compounds prepared in the examples were each dissolved in dimethylsulfoxide to give solutions at a concentration of 10 mmol/L. • 1) The example compounds were each diluted from 10 mmol/L stock solution to 0.2 mmol/L, i.e., 1 µL of the compound was added to 49 µL of DMSO; • 2) 3 µL of 0.2 mmol/L test compounds were added to 597 µL of blood plasma, and the mixtures were vortexed at 1000 rpm for 2 min; • 3) 50 µL of the plasma containing the drug in 2) was taken, 50 µL of PBS was added, and 300 µL of methanol internal standard* was added to serve as a sample T0; • 4) 120 µL of the plasma containing the drug in 2) was taken and added to one side of an HTD device membrane, and 120 µL of PBS was added to the other side of the membrane; a breathable film was covered, and the plasma and the residual sample in 2) were balanced at 37 °C (100 rpm and 5% CO2) for 6 h; • 5) 50 µL of the dialyzed plasma side sample was taken, 50 µL of PBS was added, and 300 µL of methanol internal standard* was added to serve as a sample P; • 6) 50 µL of the dialyzed PBS side sample was taken, 50 µL of blank plasma was added, and 300 µL of methanol internal standard* was added to serve as a sample B; • 7) 50 µL of the plasma containing the drug in 2) was taken, 50 µL of PBS was added, and 300 µL of methanol internal standard* was added to serve as a sample T6; • 8) All samples were vortexed, mixed homogeneously, and then centrifuged at 3220 g for 40 min at 4 °C; • 9) 100 µL of the supernatant and 100 µL of purified water were mixed homogenously for liquid chromatography-mass spectrometry.
(§2) An internal standard method was used, and the plasma protein binding rate, recovery rate, and residual percentage were calculated by using Excel according to the ratio of the peak area of the sample to the peak area of the internal standard. Free rate(%) = (RatioB)/(RatioP) × 100% [formula] Binding rate(%) = 100%−Free rate% [formula] Recovery rate(%) = (RatioB + RatioP)/(RatioT0) × 100% [formula] Remaining percentage(%) = (RatioT6)/(RatioT0) × 100% [formula]
(§3) RatioB: a ratio of the peak area of the test substance on the PBS side to the peak area of the internal standard; RatioP: a ratio of the peak area of the test substance on the plasma side to the peak area of the internal standard; RatioT6: a ratio of the peak area of the sample after incubation with the test substance for 6 h to the peak area of the internal standard; RatioT0: a ratio of the peak area of the sample after incubation with the test substance for 0 h to the peak area of the internal standard. Table 8. Plasma protein binding rate (Fu%) data for various species of example compounds

[2] = Assay for plasma protein binding rate (equilibrium dialysis), dog plasma; format: in vitro ADME; conditions: dialysis 6 h at 37 °C, read-out: Dog (Fu%)
Protocol: as §1, §2, §3

Row | SMILES | pIC50 (KAT8) | fraction unbound at 6 h, 1 µM [1] | fraction unbound at 6 h, 1 µM [2]
1 | COc1cc2c(cc1S(=O)(=O)Nc1noc3cc(Cn4cccn4)nc(OC)c13)CCCC2 [Example 2, N-(6-((1H-Pyrazol-1-yl)methyl)-4-methoxyisoxazolo[4,5-c]pyridin-3-yl)-3-methoxy-5,6,7,8-tetrahydronaphthalene-2-sulfonamide] | 6.93 | 0.0065 | 0.0013
2 | COc1ccc2c(c1S(=O)(=O)Nc1noc3cc(Cn4cccn4)nc(OC)c13)OCC2 [Example 9, N-(6-((1H-Pyrazol-1-yl)methyl)-4-methoxyisoxazolo[4,5-c]pyridin-3-yl)-6-methoxy-2,3-dihydrobenzofuran-7-sulfonamide] |  | 0.0478 | 0.025
3 | COc1ccc2ccoc2c1S(=O)(=O)Nc1noc2cc(Cn3cccn3)nc(OC)c12 [Example 10, N-(6-((1H-Pyrazol-1-yl)methyl)-4-methoxyisoxazolo[4,5-c]pyridin-3-yl)-6-methoxybenzofuran-7-sulfonamide] | 7.10 | 0.0512 | 0.0145
4 | COc1cc2c(cc1S(=O)(=O)Nc1noc3cc(Cn4cccn4)nc(OC)c13)OCC2 [Example 59, N-(6-((1H-Pyrazol-1-yl)methyl)-4-methoxyisoxazolo[4,5-c]pyridin-3-yl)-5-methoxy-2,3-dihydrobenzofuran-6-sulfonamide] | 6.49 | 0.05 | 0.0143
5 | COc1cc2c(cc1S(=O)(=O)Nc1noc3cc(Cn4cccn4)nc(OC)c13)CCCO2 [Example 76, N-(6-((1H-Pyrazol-1-yl)methyl)-4-methoxyisoxazolo[4,5-c]pyridin-3-yl)-7-methoxy-3,4-dihydro-1H-benzopyran-6-sulfonamide] |  | 0.0072 | 0.0065
